# Values quoted from earlier work in patent US8163169B2, “Hydroconversion processes employing multi-metallic catalysts and method for making thereof” (Chevron U.S.A. Inc., priority 2007, dated 2012).
# Test system: rats
# Conditions: single oral dose to rats
structure (smiles),measurement,value
O=CC(=O)O [glyoxylic],LD50,3000 mg/kg
